Assay results taken from patent US10414745B2, “Phenol derivatives to treat cancer” (FUNDACIÓN MEDINA. CENTRO DE EXCELENCIA EN INVESTIGACIÓN DE …, priority 2015, dated 2019).
Like-named read-outs stand apart in the source and are kept apart here. One block for each compound: values may come before it.

Experiments:
[1] = test system: Cancer Stem Cells MiaPaca_2; experiment: MTT assay, synergism with Gemcitabine, Cancer Stem Cells MiaPaca_2; format: cell-based; details: Homo sapiens, MIA PaCa-2; Cancer Stem Cells MiaPaca_2, Gemcitabine alone; read-out: IC50, dose-response curve of Gemcitabine
Protocol: In order to study if treatment with MDN-0090 could be used in synergism with the most common pancreatic chemotherapic drug (Gemcitabine), MTT assay was performed using tumor cell lines (MiaPaca_2 and BxPC3) and cancer stem cells (MiaPaca_2 and BxPC3). In this way different Gemcitabine concentrations (0.00025-5 μM) were used with MDN-0090 dose response curves (0.39-50 μM) and vice versa. With this assay, we observed that the activity of both compounds (Gemcitabine and MDN-0090) increased when were administered together. (Tables 14-19)

[2] = test system: MiaPaca_2; experiment: MTT assay in MiaPaca_2 tumoral pancreatic cell line; format: cell-based; details: Homo sapiens, MIA PaCa-2; 72 hours of treatment; read-out: ED50 MiaPaca_2 (MTT assay)
Protocol: (§1) The activity of the compounds was detected using tumoral pancreatic cell lines (MiaPaca-2 and BxPC3). For this purpose MTT test was used. Cells were seeded at […], and treated with the compound during 72 hours.

[3] = test system: BxPC3; experiment: MTT assay in BxPC3 tumoral pancreatic cell line; format: cell-based; details: Homo sapiens, BXPC-3; 72 hours of treatment; read-out: ED50 BxPC3 (MTT assay)
Protocol: as §1

[4] = test system: MiaPaca 2 cell line; experiment: ApoTox-Glo Triplex Assay (viability, citotoxicity, apoptosis); format: cell-based; details: Homo sapiens, MIA PaCa-2, MiaPaca_2, 72 hours of treatment
Protocol: The MiaPaca 2 cell line was used for further evaluation of the MDN-0089, MDN-0090, MDN-0092 and MDN-0093 activity. The ApoTox-Glo™ Triplex Assay was used to evaluate three parameters (viability, citotoxicity and apoptosis).
Viability: The live-cell protease activity is restricted to intact viable cells and is measured using a fluorogenic, cell-permeant, peptide substrate (glycylphenylalanyl-aminofluorocoumarin; GF-AFC). The substrate enters intact cells where it is cleaved by the live-cell protease activity to generate a fluorescent signal proportional to the number of living cells
Cytotoxicity: Fluorogenic cell-impermeant peptide substrate (bis-alanylalanyl-phenylalanyl-rhodamine 110; bis-AAF-R110) is used to measure dead-cell protease activity, which is released from cells that have lost membrane integrity. Because bis-AAF-R110 is not cell-permeant, essentially no signal from this substrate is generated by intact, viable cells
Apoptosis: The assay uses the Caspase-Glo® Assay Technology by providing a luminogenic caspase-3/7 substrate, which contains the tetrapeptide sequence DEVD, in a reagent optimized for caspase activity, luciferase activity and cell lysis.

[5] = test system: MiaPaca_2 cell line; experiment: CFSE assay (cell cycle inhibition, High content screening); format: cell-based; details: Homo sapiens, MIA PaCa-2; MiaPaca_2, 72 hours of treatment; read-out: ED50 CFSE assay
Protocol: To evaluate the potency of the MDN-0089, MDN-0090, MDN-0092 and MDN-0093, dye CFSE and High content screening (HCS) equipment were used. MiaPaca_2 cell line was used. Cells were seeded in 96 wells plates at 10.000 cells/well. Medium was removed and compounds and standards were added in fresh medium at different concentrations, (1 μL of compound/200 μL fresh medium). The DMSO concentration was 0.5% in all wells. After 72 hours of incubation (37° C., 5% CO2), plates were read in HCS equipment.

[6] = test system: pERK1/2; experiment: Western blot pERK1_2 (Ras/Raf/MEK/ERK pathway inhibition); format: cell-based; details: 24 hours of treatment, untreated 0.38
Source text: Western blot technique was used, using an Odissey Licor equipment to read the membranes. pERK1_2 antibody was used as first antibody and as second antibody we used anti-mouse antibodies. Then, the membranes were quantified using β-actin.

[7] = test system: HepG2; experiment: Cytotoxicity on HepG2; format: cell-based; details: for activity effect on HepG2 (in words): 72 hours; for IC50: Homo sapiens, HepG2, 72 hours, read-out: IC50 Cytoxicity
[8] = test system: p-ERK; experiment: AlphaScreen Surefire p-ERK kit assay; format: cell-based; details: 24 hours of treatment, read-out: Inflexion point (AlphaScreen)
Protocol: This effect was checked for MDN-0090 with a p-ERK kit (Perkin Elmer). Cells were seeded into 96 wells/plate at 75000 cells/well. 24 hours later the medium was removed and the compound was added with fresh medium. After 24 hours of treatment, cells were lysed. 15 μL of the lysate and 15 μL of reagents were added. After 2 hours of incubation, plate was read using an EnVision equipment to read AlphaScreen assay (AlphaScreen signal (Luminiscent/fluorescent). See table 11 and FIG. 2.

[9] = test system: CSCs MiaPaca_2; experiment: MTT test on pancreatic Cancer Stem Cells MiaPaca_2; format: cell-based; details: Homo sapiens, MIA PaCa-2, read-out: ED50 CSCs MiaPaca_2
Source text: (§2) Two established cell lines derived from two different pancreatic adenocarcinomas: BxPC3 (reference ATCC® CRL-1687), mutated for CDKN2A, MAP2K4, SMAD4 and TP53; and MIA-PaCa-2 (reference ATCC® CRL-1420), mutated for k-RAS were used. These cells lines were maintained with Dulbecco's-Modified Eagle's Medium (DMEM) (Sigma-Aldrich, St. Louis, Mo., USA) supplemented with 10% fetal bovine serum (FBS) (Gibco, Carlsbad, Calif., USA) and 1% penicillin/streptomycin (P/S) (Sigma-Aldrich) in a 75 cm^2 culture flask (B D Falcon, Franklin Lakes, N.J.) unless otherwise indicated. All cells were grown at 37° C. with 5% CO2 in a humidified incubator (Steri-Cult CO2 Incubator, Thermo Electron Corporation, Waltham, Mass., USA). Media were changed every 48-72 hours and cultured cells with a maximum of 80% confluence were passed.
(§3) For the isolation of CSCs subpopulation we used the methodology described in WO 2016/020572.
(§4) The activity of the MDN-0090 was detected using pancreatic Cancer Stem Cell lines (MiaPaca-2 and BxPC3). For this purpose MTT test was used.

[10] = test system: CSCs BxPC3; experiment: MTT test on pancreatic Cancer Stem Cells BxPC3; format: cell-based; details: Homo sapiens, BXPC-3, read-out: ED50 CSCs BxPC3
Source text: as §2, §3, §4

[11] = test system: BxPC3 tumor cell line xenografts; experiment: Antitumor activity in heterotopic xenografts, BxPC3; format: in vivo; details: BxPC3 xenograft, NSG mice, 20 mg/kg ip three times a week for 50 days
Protocol: (§5) To evaluate the effect of MDN-0090 on tumor growth heterotopic xenografts were used for both BxPC3 and MIAPaca-2 tumor cell lines. Tumor formation was induced by subcutaneous injection of 5×10^6 cells/mouse in female NOD scid mice gamma (NOD.Cg-Prkdcscid II2rgtm1Wjl/SzJ, NSG) of eight weeks old. Animals (n=40, 10 per group) were housed and maintained at 20° C. to 24° C., 50% humidity a light-dark cycle of 14 to 10 h with food and water ad libitum. Tumors were grown to an average volume of 100 mm^3, after which they were randomly assigned as control groups (saline) and treated with MDN-0090 (20 mg/kg, dissolved in saline) injected ip three times a week for 50 days. Tumor growth was assessed twice weekly using a digital caliper and the tumor volume was calculated by the formula V=(length)^2×width×π/6.

[12] = test system: MIAPaca-2 tumor cell line xenografts; experiment: Antitumor activity in heterotopic xenografts, MIAPaca-2; format: in vivo; details: MIAPaca-2 xenograft, NSG mice, 20 mg/kg ip three times a week for 50 days
Protocol: as §5

[13] = test system: BxPC3 CSCs xenografts; experiment: Antitumor activity against CSCs induced tumors; format: in vivo; details: BxPC3 CSCs xenograft, NSG mice, 10 mg/kg or 20 mg/kg ip three times a week for 52 days
Protocol: We evaluated the effect of MDN-0090 on CSCs induced tumors. We isolated and characterized the pancreatic CSCs from BxPC3 cell line using the methodology described previously (WO 2016/020572).
In vivo experiment was performed in male and female NOD scid gamma mice (NSG, NOD.Cg-Prkdcscid II2rgtm1Wjl/SzJ). All animals (n=10 per group) were maintained in a microventilated cage system with a 12-h light/dark cycle, and were manipulated in a laminar air-flow cabinet to keep on the specific pathogen-free conditions.
For the induction of xenografts tumors, mice were anesthetized by inhalation of isofluorane, inoculated with 5×10^4 BxPC3 CSCs by subcutaneously injections into the flank regions. Tumors were grown to an average volume of 100 mm^3, after which they were randomly assigned as control groups (saline) and treatment A with MDN-0090 (10 mg/kg, dissolved in saline) and treatment B (20 mg/kg, dissolved in saline) ip three times a week for 52 days. Tumor growth was assessed twice weekly using a digital caliper and the tumor volume was calculated by the formula V=(length)^2×width×π/6.

[14] = test system: BxPC3 tumor cell line; experiment: In vivo tumorigenicity assay, BxPC3; details: BxPC3 cells treated with MDN-0090 at IC50 for 24 hours before inoculation into NSG mice
Protocol: (§6) To evaluate the effect of MDN-0090 on the tumorigenicity ability of CSC-like cells heterotopic xenografts using both BxPC3 and MIAPaca-2 tumor cell lines were established. Firstly, we treated cells with MDN-0090 at IC50 for 24 hours and after that cells were inoculated into the animals. Pancreatic cancer non-treated cells were used as control.
(§7) Tumor formation was induced by subcutaneous injection of 1.5×10^4 in vitro treated or non-treated cells/mouse in NOD scid mice gamma (NOD.Cg-Prkdcscid II2rgtm1Wjl/SzJ, NSG). Animals (n=20, 10 per group) were housed and maintained at 20° C. to 24° C., 50% humidity a light-dark cycle of 14 to 10 h with food and water ad libitum. We observed the tumor growth every two days. Tumor growth was assessed using a digital caliper and the tumor volume was calculated by the formula V=(length)^2×width×π/6.

[15] = test system: MIAPaca-2 tumor cell line; experiment: In vivo tumorigenicity assay, MIAPaca-2; details: MIAPaca-2 cells treated with MDN-0090 at IC50 for 24 hours before inoculation into NSG mice
Protocol: as §6, §7

[16] = read-out: ED50 Apoptosis (Caspase3_7)

Compound: Nc1ccn([C@@H]2O[C@H](CO)[C@@H](O)C2(F)F)c(=O)n1 [Gemcitabine]
- IC50 [1]: 1.9 µM

Compound: Cc1cc(O)c(C(=O)c2c(C=O)c(O)cc3c2C(=O)CC(C)(C)O3)c(O)c1 [MDN-0089]
- EC50 [2]: 20.3 µM
- EC50 [3]: 7.63 µM
- EC50 [4, 16]: 29.7 µM
- EC50 ([4]; read-out: ED50 Citotoxicity): > 50 µM
- EC50 ([4]; read-out: ED50 Viability): > 50 µM
- EC50 [5]: 3.33 µM
- pERK1_2 (Fluorescence pERK1/2/fluorescence β-actine) [6]: 0.22
- activity effect on HepG2 (in words) [7]: medium activity effect
- IC50 [7]: 13.6 µM

Compound: CC(C)=CCc1c(O)cc(O)c(C=O)c1C(=O)c1c(O)cc(C)cc1O [MDN-0090, 2,3′,5′,6-tetrahydroxy-2′-formyl-6′-(3-methyl-2-butenyl)-4-methyl-benzophenone]
- EC50 [2]: 8.84 µM
- EC50 [3]: 4.67 µM
- EC50 [4, 16]: 24.9 µM
- EC50 ([4]; read-out: ED50 Citotoxicity): > 50 µM
- EC50 ([4]; read-out: ED50 Viability): 17.3 µM
- EC50 [5]: 5.27 µM
- pERK1_2 (Fluorescence pERK1/2/fluorescence β-actine) [6]: 0.18
- IC50 ([8]; 24 h): 9.02 µM
- IC50 [8]: 6.12 µM
- activity effect on HepG2 (in words) [7]: medium activity effect
- IC50 [7]: 19.7 µM
- EC50 ([9]; 12 hours): 20.8 µM
- EC50 ([9]; 24 hours): 14 µM
- EC50 ([9]; 48 hours): 19.6 µM
- EC50 ([9]; 72 hours): 2.18 µM
- EC50 ([10]; 12 hours): 14.3 µM
- EC50 ([10]; 24 hours): 17 µM
- EC50 ([10]; 48 hours): 14 µM
- EC50 ([10]; 72 hours): 10.3 µM
- tumor size (tumor volume) [11]: reduces the size of tumors
- tumor size (tumor volume) [12]: reduces the size of tumors
- tumor size (tumor volume) [13]: decreased the size tumor
- tumor formation [14]: reduces tumor formation
- tumor formation [15]: reduces tumor formation

The next lines start with results.

- EC50 [2]: > 50 µM
- EC50 [3]: > 50 µM
Compound: Cc1cc(O)c(C(=O)c2c(C=O)c(O)cc3c2C=CC(C)(C)O3)c(O)c1 [MDN-0091]

- EC50 [2]: 7.18 µM
- EC50 [3]: 9.14 µM
- EC50 [5]: 22.9 µM
Compound: COc1cc(O)c(C=O)c(C(=O)c2c(O)cc(C)cc2O)c1CC=C(C)C [MDN-0092]
- EC50 [4, 16]: > 50 µM
- EC50 ([4]; read-out: ED50 Citotoxicity): > 50 µM
- EC50 ([4]; read-out: ED50 Viability): > 50 µM
- pERK1_2 (Fluorescence pERK1/2/fluorescence β-actine) [6]: 0.29
- activity effect on HepG2 (in words) [7]: medium activity effect
- IC50 [7]: 20.4 µM

- EC50 [2]: 6.47 µM
- EC50 [3]: 8.7 µM
- EC50 [5]: < 3.15 µM
Compound: COc1cc(O)c(C=O)c(C(=O)c2c(O)cc(C)c(Cl)c2O)c1CC=C(C)C [MDN-0093]
- EC50 [4, 16]: 18.4 µM
- EC50 ([4]; read-out: ED50 Citotoxicity): > 50 µM
- EC50 ([4]; read-out: ED50 Viability): 14.5 µM
- pERK1_2 (Fluorescence pERK1/2/fluorescence β-actine) [6]: 0.12
- activity effect on HepG2 (in words) [7]: high activity effect
- IC50 [7]: 8.9 µM

- EC50 [2]: > 50 µM
- EC50 [3]: > 50 µM
Compound: COc1cc(O)c2oc3cc(C)cc(O)c3c(=O)c2c1CC=C(C)C [MDN-0094]
